Values after ≈ are worked out from the molar mass of the structure shown. Active and inactive are the calls of the source. The calls are words filed in the database; no cut-off is given here. A value given as a limit tells only on which side of the number the result lay.

By IC50 is commonly meant the concentration at which inhibition is half-maximal. A lower IC50 goes with higher potency.

Assay [1] is described as follows: Antiproliferative activity against human A2780cis cells after 72 hrs at 37 degC by MTT assay. The class given is functional, cell-based. Background: Formazan colour is commonly taken as a measure of viable cells.
Assay [2] is described as follows: Antiproliferative activity against immortalized human ECRF24 cells after 72 hrs at 37 degC by CellTiter-Glo luminescence assay. The class given is functional. To be noted: ECRF24, 72 h. On the technique in general: ATP-based viability assays read luminescence as a measure of living cells.
Assay [3] concerns A2780. Nature of the assay: Antiproliferative activity against human A2780 cells after 72 hrs at 37 degC by MTT assay. The class given is functional, cell-based. To be noted: A2780, 72 h.
Assay [4] in a line: Antiproliferative activity against embryonic stem cells in intact mouse embryoid bodies. The class given is functional, cell-based.
The subject of assay [5] is HEK293. Nature of the assay: Antiproliferative activity against HEK293 cells after 72 hrs at 37 degC by CellTiter-Glo luminescence assay. Format: cell-based. To be noted: Homo sapiens, HEK293, 72 h.
Assay [6] concerns Chorioallantoic membrane. Nature of the assay: Antiangiogenic activity in chicken fertilized egg chorioallantoic membrane assessed as avascular zone by measuring reduction in number of branching points at 20 ug/kg/day, iv administered as bolus dose on embryo development day 11 for 3 days by epifluorescence microscopic analysis relative to control. Format: functional. To be noted: Gallus gallus.

Assay [7] relates to Chorioallantoic membrane. Nature of the assay: Antiangiogenic activity in chicken fertilized egg chorioallantoic membrane assessed as avascular zone by measuring reduction in number of branching points at 49 ug/kg/day, iv administered as bolus dose on embryo development day 11 for 3 days by epifluorescence microscopic analysis relative to control. The class given is functional. To be noted: Gallus gallus.

For assay [8], the species on record is Homo sapiens. Kind of assay: Antimigratory activity against human ECRF24 cells assessed as wound closure at 6 to 50 uM after 7 hrs by wound healing assay. Format: functional, cell-based.
Assay [9] relates to Chorioallantoic membrane. Kind of assay: Antiangiogenic activity in chicken fertilized egg chorioallantoic membrane assessed as inhibition of vascular sprout formation at 487 ug/kg/day, iv administered as single bolus dose 1 min post 5 Jcm'-2 light irradiation on embryo development day 11 measured 24 hrs post dose by epifluorescence microscopic analysis. To be noted: Gallus gallus. Format: functional, organism-based.

The test system of assay [10] is Chorioallantoic membrane. Kind of assay: Antiangiogenic activity in chicken fertilized egg chorioallantoic membrane assessed as inhibition vascular sprout formation at 97 ug/kg/day, iv administered as single bolus dose 1 min post 5 Jcm'-2 light irradiation on embryo development day 11 measured 24 hrs post dose by epifluorescence microscopic analysis. Format: functional, organism-based. The conditions noted are these: Gallus gallus.

For assay [11], the system named is Chorioallantoic membrane. Nature of the assay: Antiangiogenic activity in chicken fertilized egg chorioallantoic membrane assessed as avascular zone by measuring reduction in number of branching points at 55 ug/kg/day, iv administered as bolus dose on embryo development day 11 for 3 days by epifluorescence microscopic analysis relative to control. The class given is functional. The conditions noted are these: Gallus gallus.

The test system of assay [12] is A2780. Nature of the assay: Antitumor activity against human A2780 cells implanted in chicken fertilized egg chorioallantoic membrane assessed as tumor growth inhibition at 487 ug/kg/day, iv administered as bolus dose on embryo development day 11 for 3 days measured up to 8 days post treatment relative to control. Format: functional. The conditions noted are these: Gallus gallus, read-out: TGI.

The subject of assay [13] is Chorioallantoic membrane. Kind of assay: Antiangiogenic activity in chicken fertilized egg chorioallantoic membrane assessed as inhibition of vascular sprout formation at 64 ug/kg/day, iv administered as single bolus dose 1 min post 5 Jcm'-2 light irradiation on embryo development day 11 measured 24 hrs post dose by epifluorescence microscopic analysis. Format: functional, organism-based. To be noted: Gallus gallus.

For assay [14], the system named is A2780. Nature of the assay: Antitumor activity against human A2780 cells implanted in chicken fertilized egg chorioallantoic membrane assessed as tumor growth inhibition at 64 ug/kg/day, iv administered as bolus dose on embryo development day 11 for 3 days measured up to 8 days post treatment relative to control. The conditions noted are these: Gallus gallus, read-out: TGI. Format: functional.

Assay [15] concerns Chorioallantoic membrane. Nature of the assay: Antiangiogenic activity in chicken fertilized egg chorioallantoic membrane assessed as inhibition of vascular sprout formation at 435 ug/kg/day, iv administered as single bolus dose 1 min post 5 Jcm'-2 light irradiation on embryo development day 11 measured 24 hrs post dose by epifluorescence microscopic analysis. The class given is functional, organism-based. To be noted: Gallus gallus.

The subject of assay [16] is Chorioallantoic membrane. Kind of assay: Antiangiogenic activity in chicken fertilized egg chorioallantoic membrane assessed as avascular zone by measuring reduction in number of branching points at 36 ug/kg/day, iv administered as bolus dose on embryo development day 11 for 3 days by epifluorescence microscopic analysis relative to control. Format: functional. To be noted: Gallus gallus.

The subject of assay [17] is A2780. Nature of the assay: Antitumor activity against human A2780 cells implanted in chicken fertilized egg chorioallantoic membrane assessed as tumor growth inhibition at 435 ug/kg/day, iv administered as bolus dose on embryo development day 11 for 3 days measured up to 8 days post treatment relative to control. Format: functional. To be noted: Gallus gallus, read-out: TGI.

As for `O=C(O)CCCc1ccc(N(CCCl)CCCl)cc1` [CHLORAMBUCIL], the IC50 was 43 µM in [1]; 8 µM in assay [2]; 12 µM in assay [3]; 1.25 mg/L (≈ 4.11 µM) in [4]; 25 µM in [5]. For the same compound, the inhibition in vivo at 0.02 mg/kg/day in assay [6] stood at 33%.

Consider `O=C(CCCc1ccc(N(CCCl)CCCl)cc1)OCCC(F)(F)C(F)(F)C(F)(F)C(F)(F)C(F)(F)C(F)(F)C(F)(F)C(F)(F)F`, for which the inhibition in vivo at 0.049 mg/kg/day in assay [7] came out at 29%. In addition, the IC50 in assay [1] was determined as 25 µM; in assay [2], 52 µM; in assay [3] it was 38 µM; in [5], 57 µM.

Turning to `O=C(CCCc1ccc(N(CCCl)CCCl)cc1)OCCC(F)(F)C(F)(F)C(F)(F)C(F)(F)C(F)(F)C(F)(F)C(F)(F)C(F)(F)C(F)(F)C(F)(F)F`, the IC50 in assay [1] is above 200 µM; in [2], 66 µM; in assay [3], above 200 µM; in assay [5] it was above 200 µM. Besides, the result in [8] was inactive. For the same compound, the inhibition entry in [9] and in [10] was “inactive” in each case. Further, the inhibition in vivo at 0.055 mg/kg/day in assay [11] was 59%. Besides, in [12], the inhibition in vivo at 0.487 mg/kg/day is 70%.

Consider `CCCCCCCCCCCCCCCCCCOC(=O)CCCc1ccc(N(CCCl)CCCl)cc1`, for which, in [13], the inhibition result was “Active”. The inhibition in vivo at 0.064 mg/kg/day in [14] was determined as 53%. Also, the inhibition entry in [15] was “inactive”. Besides, the IC50 in assay [1] was above 200 µM; in assay [2], 89 µM; in assay [3], above 200 µM; in [5], above 200 µM. The outcome in assay [8] was inactive. Also, in assay [16], the inhibition in vivo at 0.036 mg/kg/day stood at 20%. For the same compound, the inhibition in vivo at 0.435 mg/kg/day in assay [17] turned out to be 49.5%.

For the origin of these results see ChEMBL document CHEMBL4431300 (Medchemcomm, 2016).
